Patent US6306854A, “Chemical compounds” (Glaxosmithkline, priority 1998, dated 2001)

Legend:
hPPAR alpha = test: Binding Assay (displacement of Radioligand from GST-hPPAR alpha); set-up: species or system human; details: 60 nM Radioligand
From the text: Bound radioactivity eluted in the column void volume and was quantitated by liquid scintillation counting.

[1] = tested on: PPAR alpha over PPAR gamma; test: Transfection assay, selectivity for PPAR alpha over PPAR gamma (GAL4-hPPAR alpha and GAL4-hPPAR gamma); format: cell-based, human; details: CV-1 cells
Experimental: Plasmids: GAL4-hPPAR alpha chimera and UAS-tk-SPAP reporters.
Transfection assay: SPAP reporter. CV-1 cells were plated in DME medium supplemented with 10% delipidated fetal calf serum at a density of 2.4×10^4 cells per well in a 96-well plate (Costar) 16-24 h before transfection. In general, 8.0 ng of reporter plasmid, 25.0 ng of β-galactosidase expression vector (pCH 110, Pharamacia), and 2.0 ng of GAL4-hPPAR alpha or GAL4-hPPAR gamma expression vector were mixed with carrier DNA (pBluescript, Stratagene) to a total of 80 ng of DNA per well in a volume of […] optiMEM I medium (Life Technologies). To this, a second mix, containing […] optiMEM I medium and […] of LIPOFECTAMINE™ (Life Technologies), was added. After 30 min. an additional […] of optiMEM I medium were added and the combined mix was then applied to the cells. […] Alternatively, alkaline phosphatse and β-galactosidase activities were measured separately using standard protocols. Briefly, cells were lysed by adding […] 0.5% Triton X-100 to the supernatant.

Zucker fa/fa female rats = test: Diet-Induced Model of Dyslipidemia, Zucker fa/fa female rats; format: in vivo, rat; details: females
From the text: (§1) Zucker lean male rats and Zucker fa/fa female rats were randomized into 3 treatment groups. The randomization was based on serum triglyceride concentration after three months on the TEKLAD high fat diet. Dosing with Example 5 or the appropriate vehicle, by oral gavage, began after 4 months of high fat feeding. Plasma glucose, lactate, serum insulin and lipid concentrations were obtained weekly, beginning on day 7 through 48 after the initiation of therapy. Metabolic data from each treatment group was collected weekly. Dexascan determinations of body mass composition obtained after 4 months on the high fat diet served as baseline. Changes in body mass composition due to therapy were determined by repeat measurements at the end of the study.
(§2) Treatment Group B Example 5 (0.1 mg/kg) dosed twice a day.
(§3) Treatment Group C Example 5 (0.3 mg/kg) dosed twice a day.

Zucker lean male rats = test: Diet-Induced Model of Dyslipidemia, Zucker lean male rats; format: in vivo, rat; details: males; for NEFA: before drug 0.72
From the text: as §1, §2, §3

For `[3H]C(CCCC)C([3H])CN(CCc1ccc(OC(C)(CC)C(=O)O)cc1)C(=O)Nc1ccc(F)cc1F` (centres unmarked) [Radioligand, 2-(4-(2-(2,3-Ditritio-1-heptyl-3-(2,4-difluorophenyl)ureido)ethyl)phenoxy)-2-methylbutanoic Acid], the “Specific Binding” value (hPPAR alpha; no competitor minus 10 μM Cold Radioligand) was 115000 dpm.

With `CC(C)(Sc1ccc(CCN(CCCCC2CCCCC2)C(=O)NC2CCCCC2)cc1)C(=O)O` [Example 1, 2-(4-(2-(1-(Cyclohexanebutyl)-3-cyclohexylureido)ethyl)phenylthio)-2-methylpropionic Acid] the “activity ratio, PPAR alpha over PPAR gamma” value (shortened to “activity ratio, PPAR alpha”) [1] was “greater than 100”.

For `CC(C)(Sc1ccc(CCN(CCc2ccc(-c3ccccc3)cc2)C(=O)NC2CCCCC2)cc1)C(=O)O` [Example 2, 2-(4-(2-(1-(4-Biphenylethyl)-3-cyclohexylureido)ethyl)phenylthio)-2-methylpropionic Acid], the “activity ratio, PPAR alpha” value [1] was “greater than 100”.

With `CCCCCCCN(CCc1ccc(SC(C)(C)C(=O)O)cc1)C(=O)Nc1ccc(F)cc1F` [Example 5, 2-(4-(2-(1-Heptyl-3-(2,4-difluorophenyl)ureido)ethyl)phenylthio)-2-methylpropionic Acid] the NEFA (Zucker fa/fa female rats; 0.1 mg/kg oral gavage twice a day, Week 1, before drug 11.15, vehicle 6.78) was 2.47 m Eq/L, the “Body Weight” value (Zucker fa/fa female rats; 0.1 mg/kg oral gavage twice a day, Week 1, before drug 665, vehicle 684) was 721 g and the Cholesterol (Zucker fa/fa female rats; 0.1 mg/kg oral gavage twice a day, Week 1, before drug 1648, vehicle 1186) was 610 mg/dL. The Triglycerides (Zucker fa/fa female rats; 0.1 mg/kg oral gavage twice a day, Week 1, before drug (after 4 months on high-fat diet) 9310, vehicle 5357) was 2717 mg/dL, the NEFA (Zucker fa/fa female rats; 0.1 mg/kg oral gavage twice a day, Week 4, before drug 11.15, vehicle 2.79) was 1.32 m Eq/L and the “Body Weight” value (Zucker fa/fa female rats; 0.1 mg/kg oral gavage twice a day, Week 4, before drug 665, vehicle 700) was 723 g. The Cholesterol (Zucker fa/fa female rats; 0.1 mg/kg oral gavage twice a day, Week 4, before drug 1648, vehicle 1319) was 733 mg/dL, the Triglycerides (Zucker fa/fa female rats; 0.1 mg/kg oral gavage twice a day, Week 4, before drug 9310, vehicle 10414) was 3913 mg/dL and the NEFA (Zucker fa/fa female rats; 0.1 mg/kg oral gavage twice a day, Week 7, before drug 11.15, vehicle 3.77) was 1.75 m Eq/L. For the same compound, the “Body Weight” value (Zucker fa/fa female rats; 0.1 mg/kg oral gavage twice a day, Week 7, before drug 665, vehicle 706) was 710 g, the Cholesterol (Zucker fa/fa female rats; 0.1 mg/kg oral gavage twice a day, Week 7, before drug 1648, vehicle 923) was 632 mg/dL and the Triglycerides (Zucker fa/fa female rats; 0.1 mg/kg oral gavage twice a day, Week 7, before drug 9310, vehicle 5465) was 2627 mg/dL. The NEFA (Zucker fa/fa female rats; 0.3 mg/kg oral gavage twice a day, Week 1, before drug 13.06, vehicle 6.78) was 1.45 m Eq/L, the “Body Weight” value (Zucker fa/fa female rats; 0.3 mg/kg oral gavage twice a day, Week 1, before drug 645, vehicle 684) was 673 g and the Cholesterol (Zucker fa/fa female rats; 0.3 mg/kg oral gavage twice a day, Week 1, before drug 1908, vehicle 1186) was 350 mg/dL. The Triglycerides (Zucker fa/fa female rats; 0.3 mg/kg oral gavage twice a day, Week 1, before drug 9190, vehicle 5357) was 1627 mg/dL, the NEFA (Zucker fa/fa female rats; 0.3 mg/kg oral gavage twice a day, Week 4, before drug 13.06, vehicle 2.79) was 0.59 m Eq/L and the “Body Weight” value (Zucker fa/fa female rats; 0.3 mg/kg oral gavage twice a day, Week 4, before drug 645, vehicle 700) was 643 g. For the same compound, the Cholesterol (Zucker fa/fa female rats; 0.3 mg/kg oral gavage twice a day, Week 4, before drug 1908, vehicle 1319) was 404 mg/dL, the Triglycerides (Zucker fa/fa female rats; 0.3 mg/kg oral gavage twice a day, Week 4, before drug 9190, vehicle 10414) was 687 mg/dL and the NEFA (Zucker fa/fa female rats; 0.3 mg/kg oral gavage twice a day, Week 7, before drug 13.06, vehicle 3.77) was 0.53 m Eq/L. For the same compound, the “Body Weight” value (Zucker fa/fa female rats; 0.3 mg/kg oral gavage twice a day, Week 7, before drug 645, vehicle 706) was 582 g, the Cholesterol (Zucker fa/fa female rats; 0.3 mg/kg oral gavage twice a day, Week 7, before drug 1908, vehicle 923) was 422 mg/dL and the Triglycerides (Zucker fa/fa female rats; 0.3 mg/kg oral gavage twice a day, Week 7, before drug 9190, vehicle 5465) was 538 mg/dL. The NEFA (Zucker lean male rats; 0.1 mg/kg oral gavage twice a day, Week 1, vehicle 0.85) was 0.73 m Eq/L, the Cholesterol (Zucker lean male rats; 0.1 mg/kg oral gavage twice a day, Week 1, before drug 221, vehicle 191) was 138 mg/dL and the “Body Weight” value (Zucker lean male rats; 0.1 mg/kg oral gavage twice a day, Week 1, before drug 636, vehicle 610) was 617 g. For the same compound, the Triglycerides (Zucker lean male rats; 0.1 mg/kg oral gavage twice a day, Week 1, before drug (after 4 months on high-fat diet) 828, vehicle 718) was 460 mg/dL, the NEFA (Zucker lean male rats; 0.1 mg/kg oral gavage twice a day, Week 4, vehicle 0.65) was 0.57 m Eq/L and the Cholesterol (Zucker lean male rats; 0.1 mg/kg oral gavage twice a day, Week 4, before drug 221, vehicle 224) was 189 mg/dL. For the same compound, the “Body Weight” value (Zucker lean male rats; 0.1 mg/kg oral gavage twice a day, Week 4, before drug 636, vehicle 610) was 592 g, the Triglycerides (Zucker lean male rats; 0.1 mg/kg oral gavage twice a day, Week 4, before drug 828, vehicle 741) was 467 mg/dL and the NEFA (Zucker lean male rats; 0.1 mg/kg oral gavage twice a day, Week 7, vehicle 0.60) was 0.58 m Eq/L. For the same compound, the Cholesterol (Zucker lean male rats; 0.1 mg/kg oral gavage twice a day, Week 7, before drug 221, vehicle 215) was 148 mg/dL, the “Body Weight” value (Zucker lean male rats; 0.1 mg/kg oral gavage twice a day, Week 7, before drug 636, vehicle 632) was 597 g and the Triglycerides (Zucker lean male rats; 0.1 mg/kg oral gavage twice a day, Week 7, before drug 828, vehicle 725) was 584 mg/dL. The NEFA (Zucker lean male rats; 0.3 mg/kg oral gavage twice a day, Week 1, vehicle 0.85) was 0.69 m Eq/L, the Cholesterol (Zucker lean male rats; 0.3 mg/kg oral gavage twice a day, Week 1, before drug 235, vehicle 191) was 138 mg/dL and the “Body Weight” value (Zucker lean male rats; 0.3 mg/kg oral gavage twice a day, Week 1, before drug 639, vehicle 610) was 608 g. For the same compound, the Triglycerides (Zucker lean male rats; 0.3 mg/kg oral gavage twice a day, Week 1, before drug 926, vehicle 718) was 527 mg/dL, the NEFA (Zucker lean male rats; 0.3 mg/kg oral gavage twice a day, Week 4, vehicle 0.65) was 0.47 m Eq/L and the Cholesterol (Zucker lean male rats; 0.3 mg/kg oral gavage twice a day, Week 4, before drug 235, vehicle 224) was 174 mg/dL. For the same compound, the “Body Weight” value (Zucker lean male rats; 0.3 mg/kg oral gavage twice a day, Week 4, before drug 639, vehicle 610) was 577 g, the Triglycerides (Zucker lean male rats; 0.3 mg/kg oral gavage twice a day, Week 4, before drug 926, vehicle 741) was 174 mg/dL and the NEFA (Zucker lean male rats; 0.3 mg/kg oral gavage twice a day, Week 7, vehicle 0.60) was 0.46 m Eq/L. The Cholesterol (Zucker lean male rats; 0.3 mg/kg oral gavage twice a day, Week 7, before drug 235, vehicle 215) was 151 mg/dL, the “Body Weight” value (Zucker lean male rats; 0.3 mg/kg oral gavage twice a day, Week 7, before drug 639, vehicle 632) was 565 g and the Triglycerides (Zucker lean male rats; 0.3 mg/kg oral gavage twice a day, Week 7, before drug 926, vehicle 725) was 219 mg/dL.

`CC(C)(Sc1ccc(CCN(Cc2ccc(-c3ccccc3C(F)(F)F)cc2Cl)C(=O)NC2CCCCC2)cc1)C(=O)O` [Example 3, 2-(4-(2-(1-(2-Chloro-4-(2-trifluoromethylphenyl)phenylmethyl)-3-(cyclohexyl)ureido)ethyl)phenylthio)-2-methylpropionic Acid] was tested, and the “activity ratio, PPAR alpha” value [1] was “greater than 100”.

With `CCCCCCCN(CCc1ccc(OC(C)(CC)C(=O)O)cc1)C(=O)Nc1ccc(F)cc1F` (centres unmarked) [Cold Radioligand, 2-(4-(2-(1-Heptyl-3-(2,4-difluorophenyl)ureido)ethyl)phenoxy)-2-methylbutanoic Acid] the “Bound radioactivity in presence of competitor” value (hPPAR alpha; 10 μM competitor, 4° C., 2-3 hr, mean of triplicate, no competitor 140000) was 25000 dpm.
